Test results as given in ChEMBL document CHEMBL1201862, “PubChem BioAssay data set” (2004).
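Protocol summary: plate cells (96-well), add compound at 5 concentrations, incubate 48 h, interpolate endpoints linearly. GI50 is the concentration that inhibits growth by half.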 Calls of active or inactive are those of the source. Cut-off read from the data, not from the text of the source: active = GI50 up to about 1.1 µM and inactive = higher.

Assays:
Assay in all cases: NCI-60 cell line screen, 48 h
[1] = tested on: Malme-3M
[2] = tested on: 786-0
[3] = tested on: MCF7
[4] = tested on: HT-29
[5] = tested on: HOP-62
[6] = tested on: UO-31
[7] = tested on: OVCAR-4
[8] = tested on: Hs-578T
[9] = tested on: SK-OV-3
[10] = tested on: COLO 205
[11] = tested on: BT-549
[12] = tested on: HCC 2998
[13] = tested on: M14
[14] = tested on: DU-145
[15] = tested on: OVCAR-5
[16] = tested on: SNB-19
[17] = tested on: U-251
[18] = tested on: RXF 393
[19] = tested on: RPMI-8226

Measured: GI50

CC(=O)Oc1ccc2c(c1)CC[C@@H]1C2CC[C@]2(C)C(=O)NC(=O)CC12 (some centres undefined)
inactive: [1] > 100 µM | [2] > 100 µM | [3] > 100 µM | [4] > 100 µM | [5] > 100 µM | [6] > 100 µM | [7] > 100 µM | [8] > 100 µM | [9] > 100 µM | [10] > 100 µM | [11] > 100 µM | [12] > 100 µM | [13] > 100 µM | [14] > 100 µM | [15] > 100 µM | [16] > 100 µM | [17] > 100 µM | [18] > 100 µM

COc1ccccc1/C=C1\Sc2scc(-c3ccc(O)c(O)c3)[n+]2C1=O
inactive: [2] 15.2 µM | [3] 25.5 µM | [4] 21.4 µM | [5] 29.7 µM | [6] 18.7 µM | [7] 26.8 µM | [8] 88.3 µM | [9] 21.4 µM | [10] 19.6 µM | [11] 17.8 µM | [12] 16.6 µM | [19] 13.8 µM | [13] 15.1 µM | [14] 21.4 µM | [15] 26.5 µM | [16] 35.8 µM | [17] 27.8 µM | [18] 17.7 µM

N#CCCN(CCC#N)c1ccc(C(=N/c2ccc(F)cc2)/N=N/c2ccc(Cl)cc2)cc1
inactive: [2] > 100 µM | [3] > 100 µM | [4] > 100 µM | [5] > 100 µM | [6] > 100 µM | [7] > 100 µM | [8] > 100 µM | [9] > 100 µM | [10] > 100 µM | [11] > 100 µM | [12] > 100 µM | [19] > 100 µM | [13] > 100 µM | [14] > 100 µM | [15] > 100 µM | [16] > 100 µM | [17] > 100 µM | [18] > 100 µM

Cc1ccc(-c2n[nH]c(=O)n2NC(=O)c2ccccc2C(=O)O)cc1
inactive: [1] > 100 µM | [2] > 100 µM | [3] > 100 µM | [4] > 100 µM | [5] > 100 µM | [6] > 100 µM | [8] > 100 µM | [11] > 100 µM | [12] > 100 µM | [19] > 100 µM | [13] > 100 µM | [14] > 100 µM | [16] > 100 µM | [17] > 100 µM | [18] > 100 µM

N/N=c1\[nH]c2ccccc2o1
inactive: [1] > 100 µM | [2] 86.7 µM | [3] 88.7 µM | [4] > 100 µM | [6] 93.5 µM | [7] 46.5 µM | [8] > 100 µM | [10] > 100 µM | [11] > 100 µM | [12] > 100 µM | [19] 67.6 µM | [13] > 100 µM | [14] > 100 µM | [15] > 100 µM | [16] > 100 µM | [17] > 100 µM | [18] > 100 µM

[O-][n+]1cn[n+]([O-])c2ccccc21
inactive: [1] 18.6 µM | [2] 14.6 µM | [3] 14.3 µM | [4] 13.6 µM | [5] 17.9 µM | [6] 28.3 µM | [8] 57.1 µM | [9] 27.3 µM | [10] 19.2 µM | [11] 23.7 µM | [12] 27.1 µM | [19] 28.6 µM | [13] 23.8 µM | [14] 63.1 µM | [15] > 100 µM | [16] 84.1 µM | [17] 32.4 µM | [18] 20.7 µM

O=C1C=CC(=O)N1n1c(-c2ccccc2)n[nH]c1=O
inactive: [1] > 100 µM | [2] > 100 µM | [3] > 100 µM | [4] > 100 µM | [5] > 100 µM | [7] > 100 µM | [8] > 100 µM | [9] > 100 µM | [10] > 100 µM | [11] > 100 µM | [12] > 100 µM | [13] > 100 µM | [14] > 100 µM | [15] > 100 µM | [17] > 100 µM | [18] > 100 µM

O=C1C2CC=CCC2C(=O)N1n1c(Cc2ccc(Cl)cc2)n[nH]c1=O (centres undefined)
inactive: [1] > 100 µM | [2] > 100 µM | [3] > 100 µM | [4] > 100 µM | [5] > 100 µM | [6] > 100 µM | [7] > 100 µM | [8] > 100 µM | [9] > 100 µM | [10] > 100 µM | [11] > 100 µM | [12] > 100 µM | [19] > 100 µM | [13] > 100 µM | [14] > 100 µM | [15] > 100 µM | [17] > 100 µM | [18] > 100 µM

O=C(Nc1ccccc1)c1cc2c(cc1Cl)SC(NNCCO)=NS2(=O)=O
inactive: [2] > 100 µM | [3] > 100 µM | [4] > 100 µM | [5] > 100 µM | [6] > 100 µM | [7] > 100 µM | [8] > 100 µM | [9] > 100 µM | [10] > 100 µM | [11] > 100 µM | [12] > 100 µM | [19] > 100 µM | [13] > 100 µM | [14] > 100 µM | [16] > 100 µM | [17] > 100 µM | [18] > 100 µM

C[C@H]1O[C@@H](c2c(O)ccc3ccccc23)C[C@@H](N(C)C)C1O (some centres undefined)
inactive: [1] 48 µM | [2] 91.6 µM | [3] > 100 µM | [4] 54.6 µM | [5] > 100 µM | [6] 41.4 µM | [7] > 100 µM | [8] 80.4 µM | [9] > 100 µM | [10] 65.3 µM | [11] > 100 µM | [12] 36.6 µM | [13] 78.5 µM | [14] > 100 µM | [15] > 100 µM | [16] > 100 µM | [17] > 100 µM | [18] 20.7 µM

Oc1ccc(/C=N/c2nccs2)c(O)c1
inactive: [1] > 100 µM | [2] > 100 µM | [3] 64 µM | [4] > 100 µM | [5] > 100 µM | [6] > 100 µM | [8] > 100 µM | [9] > 100 µM | [10] 33.3 µM | [11] > 100 µM | [12] 30.2 µM | [13] > 100 µM | [14] > 100 µM | [15] > 100 µM | [16] > 100 µM | [18] > 100 µM
